Values quoted from earlier work, collected in patent publication US9592699B2, “Dampening fluid for digital lithographic printing” (Xerox Corporation, priority 2011, dated 2017).

Tests used:
[1] = not given; remark: listed apart in the source
[2] = not given; remark: listed apart in the source
[3] = not given; remark: listed apart in the source
[4] = not given; remark: listed apart in the source

Row | SMILES | Vapor Pressure at 25° C. [mmHg] | Surface Tension at 25° C. [1] [dynes/cm] | Kinematic Viscosity at 25° C. [2] [cSt] | Heat of Vaporization at boiling point [3] [kJ/kg] | Solubility in Water [4] [ppm] | surface tension [1] | kinematic viscosity ([2]; 1 mm^2/sec)
1 | COC(F)(C(F)(F)C(F)(F)F)C(F)(C(F)(F)F)C(F)(F)F (centres unmarked) [(I-a), 1,1,1,2,2,3,4,5,5,5-decafluoro-3-methoxy-4-(trifluoromethyl)pentane] | 44.9 | 15 | 0.71 | 101.7 | – | – | –
2 | CCOC(F)(C(F)(F)C(F)(F)C(F)(F)F)C(F)(C(F)(F)F)C(F)(F)F (centres unmarked) [(I-b), 3-ethoxy-1,1,1,2,3,4,4,5,5,6,6,6-dodecafluoro-2-(trifluoromethyl)hexane] | – | 16.2 | 0.77 | 88.5 | – | – | –
3 | CC(OC(F)(F)C(F)C(F)(F)F)C(F)(F)C(F)C(F)(F)F (centres unmarked) [(I-c), 1,1,1,2,3,3-Hexafluoro-4-(1,1,2,3,3,3-hexafluoropropoxy)pentane] | – | 17.7 | 1.07 | 115.6 | <10 | – | –
4 | COC(F)(F)C(F)(F)C(F)(F)F [(I-f), 1-methoxyheptafluoropropane] | 484.5 | 12.4 | 0.32 | 142 | – | – | –
5 | C[Si](C)(C)O[Si](C)(C)C [(II-a), hexamethyldisiloxane] | 35 | 15.9 | 0.65 | 200.8 | – | – | –
6 | C[Si](C)(C)O[Si](C)(C)O[Si](C)(C)C [(II-b), octamethyltrisiloxane] | 4 | 17.4 | 1 | 158 | – | – | –
7 | C[Si]1(C)O[Si](C)(C)O[Si](C)(C)O[Si](C)(C)O1 [(III-a), octamethylcyclotetrasiloxane] | 1.5 | 18.4 | 2.3 | 133 | – | – | –
8 | C[Si]1(C)O[Si](C)(C)O[Si](C)(C)O[Si](C)(C)O[Si](C)(C)O1 [(III-b), decamethylcyclopentasiloxane] | 1 | 18.0 | 3.9 | 157 | – | – | –
9 | C[Si](C)(C)O[Si](C)(O[Si](C)(C)C)O[Si](C)(C)C [(IV-a), methyltris(trimethylsiloxy)silane] | <10 | 16.8 | 1.5 | – | – | – | –
10 | O [Water, reference compound] | – | 72 | 1 | – | – | around 70 dynes/cm | about 1 centiStoke
